# Assay results reported in patent US20160038526A1, “TREATMENT OF PROSTATE CANCER” (THOMAS JEFFERSON UNIVERSITY, priority 2012, published 2016).
# Assays:
# [1] = molecular target: Stat3 (Homo sapiens, UniProt P40763); assay: IL-6-induced nuclear translocation of Stat3 in DU145 cells (immunofluorescence); type: cell-based; parameters: endogenous in cells; host or cells: DU145; settings: 2 hours pretreatment, 10 nmol/L IL-6 30 minutes
# Procedure: DU145 prostate cancer cells were pretreated with N6BAP or vehicle (DMSO) for 2 hours and then stimulated with 10 nmol/L IL-6 for 30 minutes. Cells were fixed with 100% methanol for 15 min and subsequently permeabilized with 0.1% Triton X-100 in PBS (pH 7.4). After blocking with 2% bovine serum albumin in PBS, cells were incubated with an antibody specific for Stat3 at 4° C. for 2 hours. Cells were then washed with PBS and incubated with FITC-conjugated secondary antibody (Jackson ImmunoResearch) at room temperature for 1 hour. The images were taken by using an inverted fluorescence microscopy (Carl Zeiss).
# [2] = system: Stat5a/b; assay: Clinical prostate cancers ex vivo in explant organ cultures: nuclear Stat5a/b immunohistochemistry; type: cell-based, human; settings: 7 days, N6BAP 5, 10, 25, 50 and 100 μM; C5 100 m
# Procedure: The specimens comprised de-identified excess tissue obtained after the completion of pathology diagnosis. A zero-sample prior to organ culture was formalin-fixed for each individual prostate cancer for the analysis of the nuclear Stat5a/b status. The prostate organ cultures were performed as described earlier (Ahonen et al., Endocrinology (2002), 143:228-238). Briefly, prostate cancer tissue was cut into approximately 1 mm^3 pieces in a plain culture medium and transferred onto lens papers lying on stainless steel grids in petri dishes. The medium was phenol-free medium 199 with Earle's salts (Sigma) containing dialyzed 5% fetal calf serum, G-penicillin (100 IU/ml), streptomycin sulfate ([…]), and glutamine (100 μg/ml). […] Tissue explants were cultured in a medium containing the N6BAP or control compound C5 at indicated concentrations (C5: […]; N6BAP: 5, 10, 25, 50 and 100 μM) 7 days, after which the explants were fixed in formalin and analyzed for Stat5a/b activation and viability of prostate cancer epithelial compartment. Viability of the epithelial cells in the prostate cancer explants at the end of the cultures were scored by counting the viable epithelial cells per explant.
# Nuclear Stat5a/b indexes were determined by counting the Stat5-positive cells per 500 epithelial cells in the cultured explants in each treatment group.
# [3] = molecular target: T1, Stat5a (Homo sapiens, UniProt P42229); assay: Stat5 dimerization assay (FLAG-/MYC-tagged Stat5a co-immunoprecipitation) in PC-3 cells; type: cell-based; parameters: expressed in transfected cells; host or cells: PC-3; settings: 2 hours pretreatment, hPrl 10 nM 30 minutes
# T1 sequence (P42229 1-794): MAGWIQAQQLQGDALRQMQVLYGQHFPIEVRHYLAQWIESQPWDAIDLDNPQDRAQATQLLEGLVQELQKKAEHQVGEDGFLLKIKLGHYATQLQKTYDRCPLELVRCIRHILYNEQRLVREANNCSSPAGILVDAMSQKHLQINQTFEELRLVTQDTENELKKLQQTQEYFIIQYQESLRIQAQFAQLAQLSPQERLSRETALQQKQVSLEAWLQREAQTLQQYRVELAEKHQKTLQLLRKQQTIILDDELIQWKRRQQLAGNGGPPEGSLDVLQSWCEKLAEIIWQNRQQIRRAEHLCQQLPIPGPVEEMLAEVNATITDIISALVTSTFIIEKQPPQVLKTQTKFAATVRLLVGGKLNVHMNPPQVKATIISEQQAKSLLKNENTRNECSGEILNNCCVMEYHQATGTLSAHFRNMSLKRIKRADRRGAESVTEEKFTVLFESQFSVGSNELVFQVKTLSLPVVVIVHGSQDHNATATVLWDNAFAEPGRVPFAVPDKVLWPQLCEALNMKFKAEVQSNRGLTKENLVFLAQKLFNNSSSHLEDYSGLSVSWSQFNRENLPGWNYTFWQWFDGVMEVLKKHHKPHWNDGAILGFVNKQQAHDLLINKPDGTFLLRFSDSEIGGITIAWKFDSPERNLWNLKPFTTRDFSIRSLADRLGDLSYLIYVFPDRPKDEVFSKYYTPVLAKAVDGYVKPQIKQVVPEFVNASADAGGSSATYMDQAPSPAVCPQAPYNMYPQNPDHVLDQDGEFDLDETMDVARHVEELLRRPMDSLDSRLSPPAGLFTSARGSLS
# Procedure: FLAG-tagged Stat5a and MYC-tagged Stat5a were generated as follows. Plasmid pCMV3-FLAG-Stat5a, pCMV3-MYC-Stat5a and pPrlR were co-transfected using FuGENE6 (Roche) into PC-3 cells (2 μg of each plasmid per 1×10^7 cells). The cells were starved for 20 hours, pretreated with N6BAP for 2 hours, then stimulated with hPrl (10 nM) in RPMI 1640 without serum for 30 minutes. The cell lysates were immunoprecipitated with 25 μl anti-FLAG M2 […] affinity gel (2 μg/ml, Sigma), anti-MYC pAb (1 μg/ml, Upstate) or normal rabbit serum (NRS). The primary antibodies were used in the immunoblottings at the following concentrations: anti-FLAG pAb (1:1000; Stratagene), anti-MYC mAb (1:1000; Sigma), anti-Stat5a/b mAb (1:250) (Transduction Laboratories) detected by horseradish peroxidase-conjugated secondary antibodies.
# Lanes 1, 2, 4, 6, 8, 10, 12, 14 and 16 represent cells stimulated with human prolactin (Prl) for 30 minutes which induces dimerization of Stat5. Two hours prior to Prl-stimulation, the cells had been treated with DMSO (lanes 1-4), the control compound C5 (lanes 5 and 6) or N6BAP (lanes 7-16) to test whether the Stat5a/b-inhibitor compound, N6BAP, would be able to inhibit dimerization of Stat5. […] It should be noted the drug effect in this study was not due to cell apoptosis induction, as the treatment time was only 2 hours. […]
# Stat3, sequence (P40763 whole entry, species assumed): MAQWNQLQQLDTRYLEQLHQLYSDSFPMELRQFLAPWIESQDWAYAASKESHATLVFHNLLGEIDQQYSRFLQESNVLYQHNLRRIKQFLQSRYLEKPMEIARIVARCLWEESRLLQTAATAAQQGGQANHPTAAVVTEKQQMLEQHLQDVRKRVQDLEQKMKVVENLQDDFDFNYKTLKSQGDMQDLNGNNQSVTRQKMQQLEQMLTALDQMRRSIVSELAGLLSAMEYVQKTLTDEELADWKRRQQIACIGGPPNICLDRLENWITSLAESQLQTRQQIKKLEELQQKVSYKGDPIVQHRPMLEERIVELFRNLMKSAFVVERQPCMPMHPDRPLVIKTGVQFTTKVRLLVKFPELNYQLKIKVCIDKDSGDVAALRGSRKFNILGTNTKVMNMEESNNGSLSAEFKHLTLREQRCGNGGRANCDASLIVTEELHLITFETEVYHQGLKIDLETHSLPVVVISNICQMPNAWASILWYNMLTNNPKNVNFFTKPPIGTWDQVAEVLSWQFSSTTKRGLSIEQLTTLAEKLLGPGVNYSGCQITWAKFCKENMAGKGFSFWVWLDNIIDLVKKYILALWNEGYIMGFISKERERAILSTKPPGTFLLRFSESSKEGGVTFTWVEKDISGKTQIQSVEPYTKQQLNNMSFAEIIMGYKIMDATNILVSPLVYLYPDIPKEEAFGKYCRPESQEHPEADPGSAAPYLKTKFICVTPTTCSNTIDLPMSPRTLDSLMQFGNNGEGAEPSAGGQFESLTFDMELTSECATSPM
Structure (SMILES),nuclear translocation of IL-6-induced Stat3 [1],nuclear Stat5 expression in explant organ cultures [2],dimerization of Stat5a [3]
"Cc1cc(Nc2nc(N[C@@H](C)c3ncc(F)cn3)ncc2Cl)n[nH]1 [AZD1480, reference compound]",blocks nuclear translocation of IL-6-induced Stat3 efficiently,–,–
"Nc1nc(SCc2cccnc2)[nH]c(=O)c1NC(=O)c1ccco1 [C5, reference compound]",–,Intensive positive immunostaining for nuclear Stat5,did not inhibit dimerization of Stat5a
